Measurements from article PMC9051106, “Structural insights into TRPV2 activation by small molecules” (Nature Communications, 2022).
Values joined by “and” are separate entries in the source; they are usually repeats but may differ in a detail not shown here. Equal values may be shown once.

Columns and labels:
Arg535Lys rat TRPV2 = Arg535Lys rat TRPV2 (Rattus norvegicus, UniProt Q9WUD2, R535K)
Procedure: (§1) Nanofectin (PAA, Pasching, Austria) was used to transfect HEK293T cells with WT rat TRPV2, Arg535Lys rat TRPV2, Arg539Lys rat TRPV2, His521Ala rat TRPV2, His521Asn rat TRPV2, His521Ala/Arg539Lys rat TRPV2, Thr522Ala rat TRPV2 and Tyr525Ala rat TRPV2. Mutants were generated according to the instructions of the manufacturer by site directed mutagenesis with the quick-change lightning site-directed mutagenesis kit (Aglient, Waldbronn, Germany). […] Cells were cultured at 37 °C with 5% CO2 in Dulbecco’s modified Eagle medium nutrient mixture F12 (DMEM/F12 Gibco/Invitrogen, Darmstadt, Germany) and supplemented with 10% fetal bovine serum, (Biochrom, Berlin, Germany).
(§2) Whole-cell voltage clamp was performed with an EPC10 USB HEKA amplifier (HEKA Electronik, Lamprecht, Germany), much as previously described. Signals were low passed at 1 kHz and sampled at 2–10 kHz. Patch pipettes were pulled from borosilicate glass tubes (TW150F-3; World Precision Instruments, Berlin, Germany) to give a resistance of about 3 MΩ. Cells were held at −60 mV and all recordings were performed at room temperature. The external solution contained: 140 mM NaCl, 5 mM KCl, 2 mM MgCl2, 5 mM EGTA, 10 mM glucose, and 10 mM HEPES, pH 7.4 (adjusted with NaOH). Calcium was omitted in order to avoid desensitization. The standard pipette solution contained: 140 mM KCl, 2 mM MgCl2, 5 mM EGTA and 10 mM HEPES, pH 7.4 (adjusted with KOH). A gravity-driven glass multi-barrel perfusion system was used to bath apply solutions. Data acquisition and off-line analyses required Patchmaster/Fitmaster software (HEKA Electronik, Lamprecht, Germany) and Origin 8.5.1 (Origin Lab, Northampton, MA, USA).

Arg539Lys rat TRPV2 = Arg539Lys rat TRPV2 (Rattus norvegicus, UniProt Q9WUD2, R539K)
Sequence of Arg539Lys rat TRPV2 (Q9WUD2 whole entry R539K): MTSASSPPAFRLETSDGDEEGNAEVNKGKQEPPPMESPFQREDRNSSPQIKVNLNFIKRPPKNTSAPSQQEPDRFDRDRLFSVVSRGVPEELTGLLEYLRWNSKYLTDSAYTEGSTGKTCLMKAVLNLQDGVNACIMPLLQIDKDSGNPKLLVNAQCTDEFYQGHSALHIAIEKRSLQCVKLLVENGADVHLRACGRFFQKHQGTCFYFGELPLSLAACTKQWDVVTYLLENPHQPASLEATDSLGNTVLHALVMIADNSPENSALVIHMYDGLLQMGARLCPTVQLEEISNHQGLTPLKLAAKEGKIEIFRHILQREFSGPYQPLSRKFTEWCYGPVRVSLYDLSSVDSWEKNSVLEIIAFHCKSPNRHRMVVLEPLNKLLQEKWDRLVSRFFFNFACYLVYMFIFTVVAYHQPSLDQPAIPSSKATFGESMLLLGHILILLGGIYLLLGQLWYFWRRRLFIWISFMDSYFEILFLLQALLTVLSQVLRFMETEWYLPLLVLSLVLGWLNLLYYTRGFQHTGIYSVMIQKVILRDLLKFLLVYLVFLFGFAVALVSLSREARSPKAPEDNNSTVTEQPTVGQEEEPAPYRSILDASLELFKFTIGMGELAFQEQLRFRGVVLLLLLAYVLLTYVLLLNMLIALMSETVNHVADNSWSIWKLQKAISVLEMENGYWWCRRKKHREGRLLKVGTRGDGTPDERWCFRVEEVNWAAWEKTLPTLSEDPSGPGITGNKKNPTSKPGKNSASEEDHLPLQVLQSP
Procedure: as §1, §2

His521Ala rat TRPV2 = His521Ala rat TRPV2 (Rattus norvegicus, UniProt Q9WUD2, H521A)
Sequence of His521Ala rat TRPV2 (Q9WUD2 whole entry H521A): as the sequence (Q9WUD2 whole entry R539K) above, with H521A, K539R counted along it
Procedure: as §1, §2

[1] = molecular target: His521Ala/Arg539Lys rat TRPV2 (Rattus norvegicus, UniProt Q9WUD2, H521A/R539K)
Sequence of His521Ala/Arg539Lys rat TRPV2 (Q9WUD2 whole entry H521A/R539K): as the sequence (Q9WUD2 whole entry R539K) above, with H521A counted along it
Procedure: as §1, §2

His521Asn rat TRPV2 = His521Asn rat TRPV2 (Rattus norvegicus, UniProt Q9WUD2, H521N)
Sequence of His521Asn rat TRPV2 (Q9WUD2 whole entry H521N): as the sequence (Q9WUD2 whole entry R539K) above, with H521N, K539R counted along it
Procedure: as §1, §2

Thr522Ala rat TRPV2 = Thr522Ala rat TRPV2 (Rattus norvegicus, UniProt Q9WUD2, T522A)
Sequence of Thr522Ala rat TRPV2 (Q9WUD2 whole entry T522A): as the sequence (Q9WUD2 whole entry R539K) above, with T522A, K539R counted along it
Procedure: as §1, §2

Tyr525Ala rat TRPV2 = Tyr525Ala rat TRPV2 (Rattus norvegicus, UniProt Q9WUD2, Y525A); details: with either 2-APB or heat
Sequence of Tyr525Ala rat TRPV2 (Q9WUD2 whole entry Y525A): as the sequence (Q9WUD2 whole entry R539K) above, with Y525A, K539R counted along it
Procedure: as §1, §2

wildtype rat TRPV2 [2] = molecular target: T1, wildtype rat TRPV2 (Rattus norvegicus, UniProt Q9WUD2)
T1 sequence (Q9WUD2 1-761): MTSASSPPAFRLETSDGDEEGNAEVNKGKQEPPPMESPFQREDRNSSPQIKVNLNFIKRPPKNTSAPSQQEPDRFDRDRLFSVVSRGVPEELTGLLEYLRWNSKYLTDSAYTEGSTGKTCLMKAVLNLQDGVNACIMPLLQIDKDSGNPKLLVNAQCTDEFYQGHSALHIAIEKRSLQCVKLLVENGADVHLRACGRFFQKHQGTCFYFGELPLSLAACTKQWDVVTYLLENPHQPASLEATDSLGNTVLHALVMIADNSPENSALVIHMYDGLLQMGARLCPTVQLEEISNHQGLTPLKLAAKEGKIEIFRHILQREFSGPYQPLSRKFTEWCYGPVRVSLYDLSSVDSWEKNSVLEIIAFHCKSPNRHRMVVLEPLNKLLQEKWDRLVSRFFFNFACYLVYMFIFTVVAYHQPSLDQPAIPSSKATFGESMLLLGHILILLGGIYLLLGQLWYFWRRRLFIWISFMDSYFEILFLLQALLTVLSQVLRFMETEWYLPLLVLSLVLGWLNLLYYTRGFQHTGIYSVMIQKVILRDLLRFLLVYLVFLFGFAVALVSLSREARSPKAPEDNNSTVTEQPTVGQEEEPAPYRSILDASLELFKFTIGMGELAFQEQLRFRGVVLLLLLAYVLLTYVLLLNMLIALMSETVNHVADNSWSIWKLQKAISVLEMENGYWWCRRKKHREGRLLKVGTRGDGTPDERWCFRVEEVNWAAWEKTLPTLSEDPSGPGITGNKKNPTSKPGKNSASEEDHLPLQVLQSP
Procedure: as §1, §2

wildtype rat TRPV2 [3] = molecular target: T1, wildtype rat TRPV2; test: Whole-cell patch recordings, current density with 2-APB alone and 2-APB co-applied with CBD; assay type: cell-based; set-up: expressed in transfected cells; host or cells: HEK293T; details: for current density: Mean ± SEM, N = 7
Procedure: as §1, §2

[4] = HEK293T, held at −60 mV, mean ± S.E.M.

Sequence of Arg535Lys rat TRPV2 (Q9WUD2 whole entry R535K): as the sequence (Q9WUD2 whole entry R539K) above, with R535K, K539R counted along it

How did the Hill coefficient (Arg535Lys rat TRPV2) turn out when `NCCOB(c1ccccc1)c1ccccc1` [2-APB, 2-aminoethoxydiphenyl borate] was run?
The Hill coefficient was 3.3 ± 0.5.

What about the EC50 (Arg535Lys rat TRPV2; [4]) of the same compound?
The EC50 was 79 ± 11 µM.

And the Hill coefficient (Arg539Lys rat TRPV2; Arg539Lys)?
Its Hill coefficient is 5.6 ± 1.1.

What about the EC50 (Arg539Lys rat TRPV2; Arg539Lys, HEK293T, held at −60 mV, mean ± S.E.M.) of the same compound?
Its EC50 is 683 ± 78 µM.

What about the “Current (minus Leak)” value (Arg539Lys rat TRPV2; rTRPV2 - R539K, 2-APB 50µM, single cell) of the same compound?
Its value is 6.3 and 7.05 and 6.6.

And the Hill coefficient (His521Ala rat TRPV2)?
The Hill coefficient was 3.3 ± 0.3.

What about the EC50 (His521Ala rat TRPV2; [4]) of the same compound?
The EC50 was 991 ± 131 µM.

What about the Hill coefficient ([1]; His521Ala/Arg539Lys) of the same compound?
Its Hill coefficient is 5.2 ± 0.6.

And the EC50 ([1]; His521Ala/Arg539Lys, HEK293T, held at −60 mV, mean ± S.E.M.)?
Its EC50 is 1.75 ± 0.125 mM.

And the “decrease in 2-APB sensitivity” value ([1]; double mutant compared to the wildtype TRPV2)?
Its value is “fivefold”.

And the Hill coefficient (His521Asn rat TRPV2)?
The Hill coefficient was 4.3 ± 0.3.

What about the EC50 (His521Asn rat TRPV2; HEK293T, held at −60 mV) of the same compound?
Its EC50 is 742 ± 14 µM.

And the Hill coefficient (Thr522Ala rat TRPV2)?
The Hill coefficient was 3.0 ± 0.3.

What about the EC50 (Thr522Ala rat TRPV2; [4]) of the same compound?
The EC50 was 232 ± 43 µM.

What about the membrane currents evoked (Tyr525Ala rat TRPV2) of the same compound?
Its membrane currents evoked is “could not evoke any membrane currents”.

What about the Hill coefficient (wildtype rat TRPV2 [2]; wildtype) of the same compound?
The Hill coefficient was 3.0 ± 0.2.

And the EC50 (wildtype rat TRPV2 [2]; wildtype rat TRPV2, HEK293T, held at −60 mV, mean ± S.E.M.)?
Its EC50 is 322 ± 27 µM.

What about the current density (wildtype rat TRPV2 [3]; 2-APB alone 10 μM) of the same compound?
The current density was 0.98 ± 0.1 pA/pF.

And the current (wildtype rat TRPV2 [3]; 2-APB alone 10 µM, single cell)?
The current was 12.35 and 14.18 and 12.95 and 20 and 11.76 and 11.18.

What about the current density (wildtype rat TRPV2 [3]; 2-APB alone 30 μM) of the same compound?
Its current density is 2.8 ± 0.3 pA/pF.

And the current density (wildtype rat TRPV2 [3]; 2-APB alone 100 μM)?
The current density was 24.9 ± 3.7 pA/pF.
